The subject of the assay is JR251 or RBL cells. In words: Store-operated calcium entry IC50 in either JR251 or RBL cells. The assay is classed as cell-based. The protocol: The day prior to performing the assay Orai1/STIM1 stable cells were plated in 50 μL of complete medium at 90-95% confluence in a 384 well plate. Cells were grown at 37° C./6% CO2 overnight. On the day of the assay, 1.5 μM fluo-4-AM (Invitrogen) in complete medium was added to the cells, which were then incubated for 1 hour at RT. Cells were washed once in Ca^2+-free HBSS (Hank's buffered saline solution) and 35 μl of Ca^2+-free HBSS was added to each well. Test compounds were added to wells in a 10 μL Ca^2+-free HBSS solution, prepared at 4.5× the desired final concentration, and incubated for 30 minutes at RT. The initial baseline fluorescence signal was then measured with a FLIPR^384 (Molecular Devices) plate reader. Calcium entry was initiated by adding 5 μl of 10× CaCl2 (10 mM) in HBSS, and changes in cellular fluorescence were measured with the FLIPR^384 plate reader. In each well, the magnitude of the fluorescence signal as a result of calcium entry into the cell was determined by calculating the difference between the peak fluorescence signal measured after calcium addition and the initial baseline fluorescence signal (designated Peak-Basal). IC50 values were typically calculated as the concentration that inhibited 50% of the Peak-Basal signal (Table A).
The day prior to performing the assay, RBL-2H3 cells are plated in 50 μL of complete medium in a 384 well plate. Cells are grown at 37° C./6% CO2 overnight and grow to 50-60% confluence by the next day. On the assay day, 1.5 μM Fluo-4-AM dye (Invitrogen) in complete medium is added and incubated for 1 hour at RT. Cells are washed twice in Ca^2+-free HBSS buffer and 35 μL Ca^2+-free HBSS buffer is added to each well. 10 μL of a test compound prepared in a Ca^2+-free HBSS solution at 4.5× of the desired concentration is added to a well and incubated for 5 minutes at RT. 10 μL of thapsigargin prepared in a Ca^2+-free HBSS solution at 5.5× of the desired concentration (5.5 uM) is added to each well and incubated for an additional 25 minutes. The initial baseline fluorescence signal is measured with a FLIPR^384 (Molecular Devices) plate reader. 5 μL of 12× calcium in HBSS (12 mM) is added and changes in cellular fluorescence are measured with the FLIPR^384 plate reader. In each well, the change in the fluorescent signal as a function of time due to calcium entry into the cell is determined by calculating the difference between the fluorescent signal measured 7 seconds after calcium addition and the initial baseline fluorescence signal at time zero (t=0). This parameter is designated Upslope. The IC50 value is calculated as the concentration at which 50% of the Upslope is inhibited.

We go through 35 molecules from patent publication US8372991B2, “Trisubstituted thiophenes that modulate intracellular calcium” (Calcimedica, Inc., priority 2008, dated 2013).

One may read the IC50 as the point on the concentration scale where inhibition reaches its midpoint. On to `Cc1ccc(-c2csc(NC(=O)c3cccc(F)c3)c2C(=O)O)s1` [5′-(3-fluorobenzamido)-5-methyl-2,3′-bithiophene-4′-carboxylic acid], for which the IC50 was below 10 µM.
`Cn1ncc(C(=O)Nc2scc(-c3cnn(-c4ccc(Cl)cc4)c3)c2C(=O)O)c1Cl` [2-(5-chloro-1-methyl-1H-pyrazole-4-carboxamido)-4-(1-(4-chlorophenyl)-1H-pyrazol-4-yl)thiophene-3-carboxylic acid]: the IC50 was below 10 µM.
The result for `O=C(Nc1scc(-c2nc3ccccc3s2)c1C(=O)O)c1cc2ccccc2o1` [4-(benzo[d]thiazol-2-yl)-2-(benzofuran-2-carboxamido)thiophene-3-carboxylic acid] reads below 10 µM.
For `Cc1nc(N2CCCCC2)ncc1-c1csc(NC(=O)c2snnc2C)c1C(=O)O` [2-(4-methyl-1,2,3-thiadiazole-5-carboxamido)-4-(4-methyl-2-(piperidin-1-yl)pyrimidin-5-yl)thiophene-3-carboxylic acid], the IC50 was below 10 µM.
The result for `Cc1cc(-c2csc(NC(=O)c3cccc(F)c3)c2C(=O)O)n(C)n1` [4-(1,3-dimethyl-1H-pyrazol-5-yl)-2-(3-fluorobenzamido)thiophene-3-carboxylic acid] reads below 10 µM; that for `O=C(Nc1scc(-c2cnn(-c3ccc(Cl)cc3)c2)c1C(=O)O)c1cncnc1` [4-(1-(4-chlorophenyl)-1H-pyrazol-4-yl)-2-(pyrimidine-5-carboxamido)thiophene-3-carboxylic acid], below 10 µM.
Then `Cc1nc(N2CCCCC2)ncc1-c1csc(NC(=O)c2cncnc2)c1C(=O)O` [4-(4-methyl-2-(piperidin-1-yl)pyrimidin-5-yl)-2-(pyrimidine-5-carboxamido)thiophene-3-carboxylic acid], with below 10 µM; and `O=C(Nc1scc(-c2ccc(Cl)s2)c1C(=O)O)c1cc2ccccc2o1` [5′-(benzofuran-2-carboxamido)-5-chloro-2,3′-bithiophene-4′-carboxylic acid], with below 10 µM; and `Cc1nc(N2CCCCC2)ncc1-c1csc(NC(=O)c2cccc(F)c2)c1C(=O)O` [2-(3-fluorobenzamido)-4-(4-methyl-2-(piperidin-1-yl)pyrimidin-5-yl)thiophene-3-carboxylic acid], with below 10 µM.
Then `CCOc1ccc(-c2csc(NC(=O)c3cc4ccccc4o3)c2C(=O)O)cn1` [2-(benzofuran-2-carboxamido)-4-(6-ethoxypyridin-3-yl)thiophene-3-carboxylic acid], with below 10 µM; and `O=C(Nc1scc(-c2cnccn2)c1C(=O)O)c1ccnnc1` [4-(pyrazin-2-yl)-2-(pyridazine-4-carboxamido)thiophene-3-carboxylic acid], with below 10 µM.
For `O=C(CCc1cccc(F)c1)Nc1scc(-c2ccc(Cl)nc2)c1C(=O)O` [4-(6-chloropyridin-3-yl)-2-(3-(3-fluorophenyl)propanamido)thiophene-3-carboxylic acid], the IC50 is below 10 µM.
Then `Cc1nnsc1C(=O)Nc1scc(-c2cnn(-c3ccc(Cl)cc3)c2)c1C(=O)O` [4-(1-(4-chlorophenyl)-1H-pyrazol-4-yl)-2-(4-methyl-1,2,3-thiadiazole-5-carboxamido)thiophene-3-carboxylic acid], with below 10 µM; and `O=C(Nc1scc(-c2cccs2)c1C(=O)O)c1ccccc1Cl` [5′-(2-chlorobenzamido)-2,3′-bithiophene-4′-carboxylic acid], with below 10 µM; and `O=C(Nc1scc(-c2ccc(F)nc2)c1C(=O)O)c1cc2ccccc2o1` [2-(benzofuran-2-carboxamido)-4-(6-fluoropyridin-3-yl)thiophene-3-carboxylic acid], with below 10 µM.
As to `O=C(Nc1scc(-c2nc3ccccc3n2C(F)F)c1C(=O)O)c1cccc(F)c1` [4-(1-(difluoromethyl)-1H-benzo[d]imidazol-2-yl)-2-(3-fluorobenzamido)thiophene-3-carboxylic acid], the IC50 is below 10 µM.
For the molecule `COc1ccc(-c2csc(NC(=O)c3cc4ccccc4o3)c2C(=O)O)cn1` [2-(benzofuran-2-carboxamido)-4-(6-methoxypyridin-3-yl)thiophene-3-carboxylic acid], the IC50 is below 10 µM.
Turning to `COc1ccc(-c2csc(NC(=O)c3cccc(F)c3)c2C(=O)O)cn1` [2-(3-fluorobenzamido)-4-(6-methoxypyridin-3-yl)thiophene-3-carboxylic acid], the IC50 is below 10 µM.
The result for `O=C(Nc1cc(-c2nc3ccccc3[nH]2)cs1)c1cccc(F)c1` [N-(4-(1H-benzo[d]imidazol-2-yl)thiophen-2-yl)-3-fluorobenzamide] reads below 10 µM; that for `Cc1ccc(-c2csc(NC(=O)c3cc4ccccc4o3)c2C(=O)O)c2ccccc12` [2-(benzofuran-2-carboxamido)-4-(4-methylnaphthalen-1-yl)thiophene-3-carboxylic acid], below 10 µM; that for `O=C(Nc1scc(-c2c[nH]c3ccccc23)c1C(=O)O)c1cccc(F)c1` [2-(3-fluorobenzamido)-4-(1H-indol-3-yl)thiophene-3-carboxylic acid], below 10 µM.
In the case of `O=C(Nc1scc(-c2ccnc(F)c2)c1C(=O)O)c1cc2ccccc2o1` [2-(benzofuran-2-carboxamido)-4-(2-fluoropyridin-4-yl)thiophene-3-carboxylic acid], the IC50 was below 10 µM.
Then `Cc1cc(-c2csc(NC(=O)c3cnn(C)c3Cl)c2C(=O)O)n(C)n1` [2-(5-chloro-1-methyl-1H-pyrazole-4-carboxamido)-4-(1,3-dimethyl-1H-pyrazol-5-yl)thiophene-3-carboxylic acid], with below 10 µM.
Then `Cc1ccc(-c2csc(NC(=O)c3cc4ccccc4o3)c2C(=O)O)c2cccnc12` [2-(benzofuran-2-carboxamido)-4-(8-methylquinolin-5-yl)thiophene-3-carboxylic acid], with below 10 µM.
Then `O=C(Nc1scc(-c2cc3ccccc3s2)c1C(=O)O)c1cc2ccccc2o1` [4-(benzo[b]thiophen-2-yl)-2-(benzofuran-2-carboxamido)thiophene-3-carboxylic acid], with below 10 µM.
Regarding `O=C(Nc1scc(-c2ccc(Br)s2)c1C(=O)O)c1cc2ccccc2o1` [5′-(benzofuran-2-carboxamido)-5-bromo-2,3′-bithiophene-4′-carboxylic acid], the IC50 is below 10 µM.
For `O=C(Nc1scc(-c2ccc3ccccc3c2)c1C(=O)O)c1cc2ccccc2o1` [2-(benzofuran-2-carboxamido)-4-(naphthalen-2-yl)thiophene-3-carboxylic acid], the IC50 was below 10 µM.
The result for `COc1cccc2cc(-c3csc(NC(=O)c4cc5ccccc5o4)c3C(=O)O)[nH]c12` [2-(benzofuran-2-carboxamido)-4-(7-methoxy-1H-indol-2-yl)thiophene-3-carboxylic acid] reads below 10 µM; that for `O=C(Nc1scc(-c2nc3ccccc3n2C(F)F)c1C(=O)O)c1cc2ccccc2o1` [2-(benzofuran-2-carboxamido)-4-(1-(difluoromethyl)-1H-benzo[d]imidazol-2-yl)thiophene-3-carboxylic acid], below 10 µM.
The result for `Cn1nc(C(F)(F)F)cc1-c1csc(NC(=O)c2cc3ccccc3o2)c1C(=O)O` [2-(benzofuran-2-carboxamido)-4-(1-methyl-3-(trifluoromethyl)-1H-pyrazol-5-yl)thiophene-3-carboxylic acid] reads below 10 µM; that for `O=C(Nc1scc(-c2ccc(F)nc2F)c1C(=O)O)c1cc2ccccc2o1` [2-(benzofuran-2-carboxamido)-4-(2,6-difluoropyridin-3-yl)thiophene-3-carboxylic acid], below 10 µM.
With `Cn1cnc(C(=O)Nc2scc(-c3cnn(-c4ccc(Cl)cc4)c3)c2C(=O)O)c1` [4-(1-(4-chlorophenyl)-1H-pyrazol-4-yl)-2-(1-methyl-1H-imidazole-4-carboxamido)thiophene-3-carboxylic acid], the IC50 was below 10 µM.
The result for `O=C(Nc1scc(-c2cnc3[nH]ccc3c2)c1C(=O)O)c1cc2ccccc2o1` [2-(benzofuran-2-carboxamido)-4-(1H-pyrrolo[2,3-b]pyridin-5-yl)thiophene-3-carboxylic acid] reads below 10 µM; that for `O=C(Nc1scc(-c2cnccn2)c1C(=O)O)c1cccc(F)c1` [2-(3-fluorobenzamido)-4-(pyrazin-2-yl)thiophene-3-carboxylic acid], below 10 µM; that for `Cc1ccc(-c2csc(NC(=O)c3ccccc3)c2C(=O)O)o1` [2-benzamido-4-(5-methylfuran-2-yl)thiophene-3-carboxylic acid], below 10 µM.
